Source: patent publication US7972793B2, “Methods and compositions for the treatment of psychotic disorders through the identification of the SULT4A1-1 haplotype” (Suregene, LLC, priority 2009, dated 2011)

Tested on: CATIE Caucasian schizophrenia patients
Assay: CATIE Phase 1 drug response: change in total PANSS (LOCF), drug switchers, segmented by SULT4A1-1 status
Format: in vivo, human
Details: for ≦−20% (number of individuals with this percent change in total PANSS; responders) / ≧−20% (number of individuals with this percent change in total PANSS; non-responders): CATIE Caucasians, LOCF
Source text: There are several different metrics for quantifying response in clinical trials of antipsychotic medications. The most commonly used psychometric instrument is the Positive and Negative Syndrome Scale (PANSS), a 30-item semi-quantitative instrument scored by clinical professionals (Kay et al., 1987). The greater the decrease in PANSS score, the better the clinical response. The most direct measure of clinical response is absolute change in PANSS score. In addition to absolute change, the improvement is often reported as a percentage change from baseline PANSS score.
A decrease of at least 20% in total PANSS is one commonly used threshold for response (Leucht et al., 2009).
The design of the CATIE study has been described in detail by others (Lieberman et al., 2005; Stroup et al., 2003). […] A total of 738 subjects consented to provide DNA for genetic study. […] Retrospective genetic analyses, judged to be exempt from human studies requirements by an IRB, were conducted in the current study.
All tested patients were studied using well established clinical endpoints comparing baseline, intermediate, and last observation carried forward (LOCF) for the PANSS scores using CATIE data. LOCF analysis is a commonly used clinical endpoint for clinical trials for neuropsychiatric drugs, with changes in PANSS scores of between negative 20% and negative 30% used as typical endpoints to indicate clinically significant response (Leucht et al., 2009). To remove time on drug as a variable for the CATIE trial, analysis was limited to only those patients who were randomized to a different drug following the initial washout period (drug switchers).
As mentioned previously, the mean change in absolute or percent PANSS provides an important measure of efficacy in patients undergoing antipsychotic treatments. Indeed, many pivotal trials in the psychosis field used absolute and/or percentage change in PANSS Score as the primary endpoint (Leucht et al., 2009). […] Therefore, in addition to examining a categorical definition of clinically significant response, the inventors determined the impact of segmentation by SULT4A1-1 status on the quantitative measure of clinical improvement—delta PANSS.

[1] = Table 16, 20% decrease in PANSS threshold, SULT4A1-1 positive group (sign not given)

In the case of `OCCOCCN1CCN(C2=Nc3ccccc3Sc3ccccc32)CC1` [Quetiapine], the “Mean Difference in Total PANSS Score, Olanzapine vs. labelled drug” value (CATIE SULT4A1-1 −) was −3.8, the “Mean Difference in Total PANSS Score, Olanzapine vs. labelled drug” value (CATIE unsegmented) was −6.2 and the “≦−20% (number of individuals with this percent change in total PANSS; responders)” value (SULT4A1-1 Negative) was 13. For the same compound, the “≧−20% (number of individuals with this percent change in total PANSS; non-responders)” value (SULT4A1-1 Negative) was 50, the “≦−20% (number of individuals with this percent change in total PANSS; responders)” value (SULT4A1-1 Positive) was 7 and the “≧−20% (number of individuals with this percent change in total PANSS; non-responders)” value (SULT4A1-1 Positive) was 11. For the same compound, the “Non Responder (number)” value [1] was 11 and the “Responder (number)” value [1] was 7.
